Source: ChEMBL document CHEMBL1909046, “DrugMatrix in vitro pharmacology data”

Assays:
[1] = target: Sigma non-opioid intracellular receptor 1 (Homo sapiens, UniProt Q99720); experiment: DRUGMATRIX: Sigma1 radioligand binding (ligand: [3H] Haloperidol); assay type: cell membranes, Jurkat, Membrane; conditions: Not Active = under 50% inhibition at 10 µM
[2] = DRUGMATRIX: Calcium Channel Type L, Phenylalkylamine radioligand binding (ligand: [3H] (-)-Desmethoxyverapamil (D-888)); assay type: cell membranes, Rattus norvegicus, Wistar, Brain, Membrane; conditions: Not Active = under 50% inhibition at 10 µM
Cannabinoid receptor 1 = Cannabinoid receptor 1 (Homo sapiens, UniProt P21554); assay type: cell membranes, Chem-1, Membrane; conditions: chem-1; note: in other assays of this panel Not Active means under 50% inhibition at 10 µM
Sequence of Cannabinoid receptor 1 (P21554 whole entry): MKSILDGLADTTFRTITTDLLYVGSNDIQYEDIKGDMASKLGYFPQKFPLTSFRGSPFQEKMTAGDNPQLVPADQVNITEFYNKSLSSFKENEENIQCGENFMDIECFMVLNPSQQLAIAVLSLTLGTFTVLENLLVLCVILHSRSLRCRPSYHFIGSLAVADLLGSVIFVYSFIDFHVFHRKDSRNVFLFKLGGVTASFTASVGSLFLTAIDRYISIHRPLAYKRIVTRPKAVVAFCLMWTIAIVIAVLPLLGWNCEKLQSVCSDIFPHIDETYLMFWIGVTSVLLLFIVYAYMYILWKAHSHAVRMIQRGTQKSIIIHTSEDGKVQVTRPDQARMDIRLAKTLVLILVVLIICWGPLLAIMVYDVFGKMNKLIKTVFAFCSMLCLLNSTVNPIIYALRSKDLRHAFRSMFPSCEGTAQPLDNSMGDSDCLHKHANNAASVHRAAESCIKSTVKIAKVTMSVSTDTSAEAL

[3] = target: T1, Angiotensin-converting enzyme (Oryctolagus cuniculus, UniProt P12822); assay type: tissue-based, Lung;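 note: enzymatic inhibition of angiotensin-converting enzyme measured with FAPGG as the substrate; in other assays of this panel Not Active means under 50% inhibition at 10 µM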
T1 sequence (P12822 whole entry): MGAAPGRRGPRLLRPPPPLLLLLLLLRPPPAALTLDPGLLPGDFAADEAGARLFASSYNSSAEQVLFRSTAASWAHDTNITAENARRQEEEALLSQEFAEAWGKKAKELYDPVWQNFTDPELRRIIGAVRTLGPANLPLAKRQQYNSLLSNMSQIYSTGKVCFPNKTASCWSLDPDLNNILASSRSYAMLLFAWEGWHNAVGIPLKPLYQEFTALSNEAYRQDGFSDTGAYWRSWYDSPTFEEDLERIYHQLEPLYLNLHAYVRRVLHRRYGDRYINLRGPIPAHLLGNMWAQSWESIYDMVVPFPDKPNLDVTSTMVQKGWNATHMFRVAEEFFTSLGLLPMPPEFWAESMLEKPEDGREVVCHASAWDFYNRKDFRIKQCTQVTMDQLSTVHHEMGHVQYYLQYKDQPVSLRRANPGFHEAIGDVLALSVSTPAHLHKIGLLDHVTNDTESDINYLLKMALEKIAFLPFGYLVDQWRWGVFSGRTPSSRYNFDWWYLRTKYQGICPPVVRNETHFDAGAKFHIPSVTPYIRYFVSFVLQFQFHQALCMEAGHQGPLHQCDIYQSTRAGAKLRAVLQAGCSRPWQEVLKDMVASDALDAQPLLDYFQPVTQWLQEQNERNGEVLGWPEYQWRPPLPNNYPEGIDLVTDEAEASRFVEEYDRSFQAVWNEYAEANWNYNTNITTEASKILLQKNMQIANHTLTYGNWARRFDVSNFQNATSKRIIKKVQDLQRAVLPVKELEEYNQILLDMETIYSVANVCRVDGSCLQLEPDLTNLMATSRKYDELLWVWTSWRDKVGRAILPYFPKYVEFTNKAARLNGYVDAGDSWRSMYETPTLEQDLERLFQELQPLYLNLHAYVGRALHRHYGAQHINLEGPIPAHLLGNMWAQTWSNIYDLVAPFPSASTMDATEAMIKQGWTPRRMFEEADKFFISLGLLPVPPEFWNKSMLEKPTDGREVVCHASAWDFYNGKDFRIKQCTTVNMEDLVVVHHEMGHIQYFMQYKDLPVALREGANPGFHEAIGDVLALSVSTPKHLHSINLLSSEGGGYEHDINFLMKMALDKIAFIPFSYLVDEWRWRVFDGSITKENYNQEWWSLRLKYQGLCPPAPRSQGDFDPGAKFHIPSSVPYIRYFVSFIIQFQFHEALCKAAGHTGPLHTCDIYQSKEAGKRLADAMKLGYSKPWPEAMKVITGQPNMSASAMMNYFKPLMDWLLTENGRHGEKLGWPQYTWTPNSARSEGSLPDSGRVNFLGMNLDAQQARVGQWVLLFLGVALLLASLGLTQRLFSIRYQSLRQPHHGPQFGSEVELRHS

[4] = target: Protein phosphatase 3 catalytic subunit alpha (Homo sapiens, UniProt Q08209); set-up: species or system Escherichia coli;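 note: inhibition of calcineurin (PP2B) enzyme activity, measured with DiFMUP as the substrate; in other assays of this panel Not Active means under 50% inhibition at 10 µM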
Adenosine receptor A2a = Adenosine receptor A2a (Homo sapiens, UniProt P29274); experiment: DRUGMATRIX: Adenosine A2A radioligand binding (ligand: […]); assay type: cell membranes, HEK293, Membrane; conditions: Not Active = under 50% inhibition at 10 µM
Sequence of Adenosine receptor A2a (P29274 whole entry): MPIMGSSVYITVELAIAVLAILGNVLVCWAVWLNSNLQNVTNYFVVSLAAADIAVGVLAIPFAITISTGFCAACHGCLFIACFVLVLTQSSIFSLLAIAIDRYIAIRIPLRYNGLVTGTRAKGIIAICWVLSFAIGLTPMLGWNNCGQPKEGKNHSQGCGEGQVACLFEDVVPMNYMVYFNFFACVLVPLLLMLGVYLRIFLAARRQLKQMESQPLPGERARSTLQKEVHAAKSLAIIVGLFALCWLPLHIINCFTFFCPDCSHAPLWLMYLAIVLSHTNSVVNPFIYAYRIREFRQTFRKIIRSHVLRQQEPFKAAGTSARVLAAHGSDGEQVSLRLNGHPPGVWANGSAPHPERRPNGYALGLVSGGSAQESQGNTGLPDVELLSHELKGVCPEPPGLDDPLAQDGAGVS

Sequence of Sigma non-opioid intracellular receptor 1 (Q99720 whole entry): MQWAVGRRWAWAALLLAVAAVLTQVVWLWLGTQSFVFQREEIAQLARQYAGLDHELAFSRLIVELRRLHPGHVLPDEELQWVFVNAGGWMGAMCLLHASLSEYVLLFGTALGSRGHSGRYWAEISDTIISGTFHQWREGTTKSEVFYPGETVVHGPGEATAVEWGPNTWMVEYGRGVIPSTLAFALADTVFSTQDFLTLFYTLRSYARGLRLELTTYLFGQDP

Row | Compound | IC50 ([1]; jurkat) | IC50 [2] | Ki [2] | IC50 (Cannabinoid receptor 1) | IC50 [3] | IC50 [4] | IC50 (Adenosine receptor A2a; hek293) | IC50 (Adenosine receptor A2a; read-out: IC50) | Ki (Adenosine receptor A2a; read-out: Ki) | IC50 ([1]; read-out: IC50) | Ki ([1]; read-out: Ki) | IC50 ([2]; read-out: IC50) | Ki ([2]; read-out: Ki)
1 | CCOC(=O)c1ncn2c1CN(C)C(=O)c1cc(F)ccc1-2 [FLUMAZENIL] | Not Active | Not Active | Not Active | Not Active | Not Active | Not Active | Not Active |  |  |  |  |  | 
2 | CC(=O)OCC(=O)[C@@]12OC(C)(C)O[C@@H]1C[C@H]1[C@@H]3C[C@H](F)C4=CC(=O)C=C[C@]4(C)[C@@]3(F)[C@@H](O)C[C@@]12C [FLUOCINONIDE] | Not Active | Not Active | Not Active | Not Active | Not Active | Not Active | Not Active |  |  |  |  |  | 
3 | O=C(O)P(=O)(O)O [FOSCARNET] | Not Active | Not Active | Not Active | Not Active | Not Active | Not Active | Not Active |  |  |  |  |  | 
4 | Cc1ccc(C)c(OCCCC(C)(C)C(=O)O)c1 [GEMFIBROZIL] | Not Active | Not Active | Not Active | Not Active | Not Active | Not Active | Not Active |  |  |  |  |  | 
5 | O=c1c(-c2ccc(O)cc2)coc2cc(O)cc(O)c12 [GENISTEIN] | Not Active | Not Active | Not Active | Not Active | Not Active | Not Active |  | 17400 nM | 9790 nM |  |  |  | 
6 | CCC1=C(C)CN(C(=O)NCCc2ccc(S(=O)(=O)NC(=O)N[C@H]3CC[C@H](C)CC3)cc2)C1=O [GLIMEPIRIDE] | Not Active | Not Active | Not Active | Not Active | Not Active | Not Active | Not Active |  |  |  |  |  | 
7 | Nc1cc(-c2ccncc2)c[nH]c1=O [INAMRINONE] | Not Active | Not Active | Not Active | Not Active | Not Active | Not Active | Not Active |  |  |  |  |  | 
8 | CCCCC1=NC2(CCCC2)C(=O)N1Cc1ccc(-c2ccccc2-c2nnn[nH]2)cc1 [IRBESARTAN] | Not Active | Not Active | Not Active | Not Active | Not Active | Not Active | Not Active |  |  |  |  |  | 
9 | CN1CCC(=C2c3ccccc3CC(=O)c3sccc32)CC1 [KETOTIFEN] | Not Active | Not Active | Not Active | Not Active | Not Active | Not Active | Not Active |  |  |  |  |  | 
10 | N[C@@H](Cn1ccc(=O)c(O)c1)C(=O)O [L-MIMOSINE] | Not Active | Not Active | Not Active | Not Active | Not Active | Not Active | Not Active |  |  |  |  |  | 
11 | C[N+](C)(C)C[C@H](O)CC(=O)[O-] [LEVOCARNITINE] | Not Active | Not Active | Not Active | Not Active | Not Active | Not Active | Not Active |  |  |  |  |  | 
12 | C[C@H]1COc2c(N3CCN(C)CC3)c(F)cc3c(=O)c(C(=O)O)cn1c23.C[C@H]1COc2c(N3CCN(C)CC3)c(F)cc3c(=O)c(C(=O)O)cn1c23.O [LEVOFLOXACIN] | Not Active | Not Active | Not Active | Not Active | Not Active | Not Active | Not Active |  |  |  |  |  | 
13 | CCn1cc(C(=O)O)c(=O)c2cc(F)c(N3CCNC(C)C3)c(F)c21 (stereo not drawn) [LOMEFLOXACIN] | Not Active | Not Active | Not Active | Not Active | Not Active | Not Active | Not Active |  |  |  |  |  | 
14 | CN1CCCC(CN2c3ccccc3Sc3ccccc32)C1 (stereo not drawn) [MEPAZINE] |  |  |  | Not Active | Not Active | Not Active | Not Active |  |  | 180 nM | 76 nM | 1550 nM | 1500 nM
15 | Cc1cccc(C)c1NC(=O)C1CCCCN1C (stereo not drawn) [MEPIVACAINE] | Not Active | Not Active | Not Active | Not Active | Not Active | Not Active | Not Active |  |  |  |  |  | 
16 | CN(C)C(=N)NC(=N)N [METFORMIN] | Not Active | Not Active | Not Active | Not Active | Not Active | Not Active | Not Active |  |  |  |  |  | 
17 | CC(C)(C)NCC(O)COc1cccc2c1CC(O)C(O)C2 (stereo not drawn) [NADOLOL] | Not Active | Not Active | Not Active | Not Active | Not Active | Not Active | Not Active |  |  |  |  |  | 
18 | C[C@]12CC[C@H]3[C@@H](CCC4=CC(=O)CC[C@@H]43)[C@@H]1CC[C@@H]2O [NANDROLONE] | Not Active | Not Active | Not Active | Not Active | Not Active | Not Active | Not Active |  |  |  |  |  | 
19 | C[C@@H]1C/C=C/C=C/C=C/C=C/[C@H](O[C@@H]2O[C@H](C)[C@@H](O)[C@H](N)[C@@H]2O)C[C@@H]2O[C@](O)(C[C@@H](O)C[C@H]3O[C@@H]3/C=C/C(=O)O1)C[C@H](O)[C@H]2C(=O)O [NATAMYCIN] | Not Active | Not Active | Not Active | Not Active | Not Active | Not Active | Not Active |  |  |  |  |  | 
20 | CN(C)C(=O)Oc1cccc([N+](C)(C)C)c1.[Br-] [NEOSTIGMINE BROMIDE] | Not Active | Not Active | Not Active | Not Active | Not Active | Not Active | Not Active |  |  |  |  |  | 
21 | NC(=O)c1cccnc1 [NIACINAMIDE] | Not Active | Not Active | Not Active | Not Active | Not Active | Not Active | Not Active |  |  |  |  |  | 
22 | CS(=O)(=O)Nc1ccc([N+](=O)[O-])cc1Oc1ccccc1 [NIMESULIDE] | Not Active | Not Active | Not Active | Not Active | Not Active | Not Active | Not Active |  |  |  |  |  | 
23 | CN1C(=O)CN=C(c2ccccc2)c2cc([N+](=O)[O-])ccc21 [NIMETAZEPAM] | Not Active | Not Active | Not Active | Not Active | Not Active | Not Active | Not Active |  |  |  |  |  | 
24 | COc1ccc2c(c1OC)C(=O)O[C@@H]2[C@H]1c2c(cc3c(c2OC)OCO3)CCN1C [NOSCAPINE] | Not Active | Not Active | Not Active | Not Active | Not Active | Not Active | Not Active |  |  |  |  |  | 
25 | C[C@@H]1O[C@@H](O[C@H]2C[C@@H](O)[C@]3(CO)[C@H]4[C@H](O)C[C@]5(C)[C@@H](C6=CC(=O)OC6)CC[C@]5(O)[C@@H]4CC[C@]3(O)C2)[C@H](O)[C@H](O)[C@H]1O [OUABAIN] | Not Active | Not Active | Not Active | Not Active | Not Active | Not Active | Not Active |  |  |  |  |  | 
26 | NC(=O)N1c2ccccc2CC(=O)c2ccccc21 [OXCARBAZEPINE] | Not Active | Not Active | Not Active | Not Active | Not Active | Not Active | Not Active |  |  |  |  |  | 
27 | COc1ccnc(C[S+]([O-])c2nc3ccc(OC(F)F)cc3[nH]2)c1OC (stereo not drawn) [PANTOPRAZOLE] | Not Active | Not Active | Not Active | Not Active | Not Active | Not Active | Not Active |  |  |  |  |  | 
28 | N=C(N)c1ccc(OCCCCCOc2ccc(C(=N)N)cc2)cc1 [PENTAMIDINE] | Not Active |  |  | Not Active | Not Active | Not Active | Not Active |  |  |  |  | 1390 nM | 1350 nM
